Measured values from US12258304B2, “Compounds and methods for treatment of bacterial infections” (Albert Einstein College of Medicine, priority 2019, dated 2025).
“Also recorded” adds a separate entry of the source.

Columns and labels:
[1] = target: T1, PhMqnE (MqnE from Pedobacter heparinus) (Pedobacter heparinus, UniProt C6XW09); assay: PhMqnE competition / inhibition assay (AF formation); assay type: biochemical
Description: (§1) FIGS. 2(a), 2(b) and 2(c) illustrate inhibition studies of MqnE. […] Assays contained 0.5 μM of PhMqnE, 1 mM SAM, 1 mM DHC, and 2-FDHC varied from 5 μM to 2 mM.
(§2) The mqnE gene from Pedobacter heparinus (PhMqnE) was coexpressed together with the pPH151 plasmid, which contains the suf operon from E. coli under the control of a T7 promoter, to promote proper FeS cluster assembly in PhMqnE. […] It was surmised that positioning fluorine atoms around the aromatic ring of DHC would stabilize the captodative radical intermediate 1 by preventing it from converting to intermediate 2 in FIG. 1(a), thereby acting as a mechanism-based inhibitor and trapping the enzyme in an intermediate state. DHC analogues were synthesized with fluorine at the 2, 4, 5, and 2,4 positions of DHC (FIG. 1 (b)).

[2] = target: T1, PhMqnE (MqnE from Pedobacter heparinus); assay: PhMqnE substrate kinetics / turnover of DHC analogues; assay type: biochemical
Description: as §1, §2

[3] = system: Helicobacter pylori (Hp); assay: Hp growth inhibition in liquid culture (OD600); assay type: cell-based
Description: Inhibition was determined by measuring the OD600 of liquid cultures incubated at 37° C. for 48 hours.
(§3) Hp grows under microanaerobic conditions in the human gut, where over population can lead to ulcers and cancer. Based on the K results described above, the effects of 2F-DHC were examined on the growth of Hp in BHI medium supplemented with 10% fetal bovine serum and Hp selective supplement (DENT supplement) in 96-well plate format. Growth of Hp was detected by measuring the optical density of the media at 600 nm after 72 hr of growth at 37° C. […] To determine if 2F-DHC inhibits Hp growth by specifically blocking the action of MqnE in the futalosine pathway, it was tested whether the product of MqnE, AF, could rescue Hp growth in the presence of 2F-DHC.

[4] = system: Escherichia coli; assay: E. coli growth in minimal media (OD600); assay type: cell-based; conditions: 1 μL of 100 mM 2F-DHC in 100 μL minimal media, OD600 at 2, 3 and 4 hr
From the text: (§4) FIGS. 4(a) and 4(b) illustrate E. coli and HEK293T cell growth in the presence of 2F-DHC.
as §3
(§5) As shown in FIG. 4(a), an overnight culture of E. coli was diluted 1:25 into 100 μL of minimal media with either 1 μL of DMSO (no DHC control) or 1 μL of 100 mM 2F-DHC in DMSO in a 96-well plate. The plate was shaken at 37° C. and monitored for at 2, 3, and 4 hr post inoculation by measuring the OD600. […] Cell growth and viability were measured with an automated cell counter after staining with tryptan blue (Countess, Life Technologies).

[5] = system: HEK293T cells; assay: HEK293T cell growth and viability; assay type: cell-based, human; conditions: 1 mM 2F-DHC, 24 and 48 hr culture
Description: as §4, §5

[6] = substrate: C=C(Oc1cccc(C(=O)O)c1)C(=O)O; assay: PhMqnE substrate kinetics / turnover of DHC analogues; assay type: biochemical, Pedobacter heparinus; conditions: other: purified PhMqnE, dithionite (DT) as electron source
[7] = media supplemented with 1 mM AF, 48 hr

`C=C(Oc1cccc(C(=O)O)c1F)C(=O)O` [2F-DHC] was tested, and the “inhibition of AF production” value ([1]; 250 μM inhibitor, 0.5 μM PhMqnE, 1 mM SAM, 1 mM DHC) was “almost completely inhibited”, the “rate of AF formation in the presence of inhibitor” value ([1]; competition assay, 2 mM DHC + 2 mM analogue, 3.5 min^−1 without analogues) was 0.2 min⁻¹ and the Ki ([1]; fit to non-linear competitive inhibition equation, 0.5 μM PhMqnE, 1 mM SAM, 1 mM DHC) was roughly 2 µM. For the same molecule, the “fold slower product formation than with DHC as substrate” value ([2]; 2 mM SAM and 2 mM 2F-DHC) was roughly 10 fold, the “rate of conversion to fluorinated AF product” value ([2]; 2 mM SAM and 2 mM analogue as sole substrate) was 0.41 min⁻¹ and the IC90 ([3]; Helicobacter pylori, 72 hr, read-out: minimal inhibitory concentration that restricts >90% of the growth (IC90)) was less than 23 µg/mL. The IC50 ([3]; Helicobacter pylori, BHI medium, 10% FBS, OD600 after 72 hr at 37° C.) was 31.8 ± 2.5 µM, the inhibition at 30 µM ([3]; Helicobacter pylori, at ˜30 μM (6 pg/mL), 72 hr) was roughly 50% and the “growth of Hp” value ([3]; at 1 mM, 48 hr) was “completely inhibits growth; also recorded: fully inhibited”. The “growth of Hp” value ([3]; at, 72 hr) was “completely inhibited”, the “effect on growth of E. coli” value [4] was “no effect; also recorded: No difference in growth is observed” and the “effect on HEK293T cell growth and viability” value [5] was “No difference in growth is observed”.

In the case of `Nc1ncnc2c1ncn2[C@@H]1O[C@H](CCC(=O)c2cccc(C(=O)O)c2)[C@@H](O)[C@H]1O` [AF, aminofutalosine, reference compound], the “OD600 of Hp culture in the presence of 1 mM 2F-DHC” value [3, 7] is reported as roughly 0.28 and the “rescue of Hp growth in the presence of 1 mM 2F-DHC” value [3, 7] is reported as “fully restored; also recorded: can restore growth”.

Work on `C[S+](CC[C@H](N)C(=O)[O-])C[C@H]1O[C@@H](n2cnc3c(N)ncnc32)[C@H](O)[C@@H]1O` (stereo partly drawn) [SAM, S-adenosyl-L-methionine, reference compound] yielded a Km ([2]; purified PhMqnE, dithionite (DT) as electron source) of 21 µM.

B1: PhMqnE (MqnE from Pedobacter heparinus) (Pedobacter heparinus DSM 2366) (protein)
chain: MDTTSKLALILADADLPAALKAIALKVQNQERITFDEGVYLYENAELGYLGVLANYIREQKHGDNTYFNRNFHIEPTNVCVYDCKFCSYSRLIKQKEEGWEMSVDGMMEVLKKYDHEPVTEVHITGGVVPKQNLEFYSDFFRRAKAHRPELHIKALTPVEYYYIFKKAKLSHYDGMKYMQEAGLDSMPGGGAEIFHPEVREKIAHDKCNAEQWLDIHEQAHKLGMKTNATMLYGHIEQFWHRVDHMERLRRQQDKTGGFQAFIPLKFRNQHNQMDHVPEVSVIEDLRNYAIARIYMDNFDHIKAYWAMISRQTAQLSLNFGVDDIDGTLDDTTKIYSMAGAEEQHPAMSTRDLVDLIKQVKRKPIERDTLYNVVTDYSQVTFEDEVKPQYYKLPVIN
In the case of B1, the Km [6] is reported as 72 µM.
